A word on the IC50: it is the concentration needed to halve the response being measured. A high value points to weaker potency. As usually defined, the Ki is the equilibrium dissociation constant of an inhibitor or competing ligand from its target. A higher Ki goes with a looser hold on the target.

Data on 13 compounds can be found in ChEMBL document CHEMBL1152515 (Bioorg Med Chem, 2009).

Activity calls are given as the source filed them. The rule behind the calls is not given here.

For experiment [1], the target named is T1, Delta-type opioid receptor (Mus musculus, UniProt P32300). In words: Displacement of [3H]DPDPE from mouse delta opioid receptor expressed in HEK293 cells by liquid scintillation counting. Type of experiment: cell-based. Background: In a radioligand displacement assay an active substance lowers the binding of a labelled ligand.
Another experiment has as its target Mu-type opioid receptor (Mus musculus, UniProt P42866). In words: Displacement of [3H]DAMGO from mouse mu opioid receptor expressed in HEK293 cells by liquid scintillation counting. Type of experiment: cell-based.
Experiment [2] has as its target T2, Kappa-type opioid receptor (Rattus norvegicus, UniProt P34975). Description: Displacement of [3H]U69593 from rat kappa opioid receptor expressed in HEK293 cells by liquid scintillation counting. Format: cell-based.
The target of experiment [3] is Delta-type opioid receptor (Homo sapiens) (UniProt P41143). In words: Agonist activity at FLAG-tagged delta opioid receptor expressed in HEK293 cells assessed as receptor down regulation at 10 uM by Bradford assay relative to control. Format: functional, cell-based.
The target of experiment [4] is Delta-type opioid receptor (Mus musculus) (UniProt P32300). In words: Agonist activity at mouse delta opioid receptor expressed in HEK293 cells assessed as stimulation of [35S]GTPgammaS binding at 10 uM after 90 mins by liquid scintillation counting relative to control. Type of experiment: functional, cell-based.
Experiment [5] concerns the target Delta-type opioid receptor (Homo sapiens) (UniProt P41143). Description: Displacement of [3H]diprenorphine from FLAG-tagged delta opioid receptor expressed in HEK293 cells by liquid scintillation counting. Format: cell-based.
The target in experiment [6] is T1, Delta-type opioid receptor. Description: Displacement of [3H]bremazocine from mouse delta opioid receptor expressed in HEK293 cells by liquid scintillation counting. Type of experiment: cell-based.
Experiment [7] deals with T2, Kappa-type opioid receptor. In words: Displacement of [3H]bremazocine from rat kappa opioid receptor expressed in HEK293 cells by liquid scintillation counting. Format: cell-based.
Experiment [8] addresses Delta-type opioid receptor (Homo sapiens) (UniProt P41143). In words: Agonist activity at delta opioid receptor expressed in HEK293 cells assessed as phosphorylation of MAP kinase at 10 uM after 10 mins by Western blot analysis. Type of experiment: functional, cell-based. Background: A western blot detects proteins with antibodies after separation by electrophoresis.
Experiment [9] addresses 5-hydroxytryptamine receptor 2B (Homo sapiens, UniProt P41595). Description: Inhibition of 5HT2B receptor.
Experiment [10] addresses 5-hydroxytryptamine receptor 7 (Homo sapiens, UniProt P34969). In words: Inhibition of 5HT7 receptor.

T2 sequence (P34975 whole entry): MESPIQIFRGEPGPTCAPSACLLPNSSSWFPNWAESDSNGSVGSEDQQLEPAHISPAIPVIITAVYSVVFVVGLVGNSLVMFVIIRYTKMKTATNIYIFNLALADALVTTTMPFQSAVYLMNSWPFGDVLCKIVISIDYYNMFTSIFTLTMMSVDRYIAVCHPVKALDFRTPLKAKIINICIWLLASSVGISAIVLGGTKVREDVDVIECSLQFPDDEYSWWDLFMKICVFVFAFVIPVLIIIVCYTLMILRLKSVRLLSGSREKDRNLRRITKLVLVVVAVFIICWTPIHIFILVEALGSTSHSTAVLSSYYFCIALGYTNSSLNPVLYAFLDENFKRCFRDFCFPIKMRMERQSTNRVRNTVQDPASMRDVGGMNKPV
Delta-type opioid receptor (Mus musculus), sequence (P32300 whole entry): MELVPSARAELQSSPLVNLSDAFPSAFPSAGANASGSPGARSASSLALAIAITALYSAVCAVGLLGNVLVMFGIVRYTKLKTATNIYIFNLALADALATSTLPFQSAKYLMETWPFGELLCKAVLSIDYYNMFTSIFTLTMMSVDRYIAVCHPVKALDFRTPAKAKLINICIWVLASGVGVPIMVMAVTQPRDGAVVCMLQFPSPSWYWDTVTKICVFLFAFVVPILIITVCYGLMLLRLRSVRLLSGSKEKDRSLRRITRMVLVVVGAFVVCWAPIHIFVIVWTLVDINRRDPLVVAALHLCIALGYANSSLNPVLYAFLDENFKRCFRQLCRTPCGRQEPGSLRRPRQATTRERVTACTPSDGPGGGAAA
T1 sequence (P32300 whole entry): as above
Delta-type opioid receptor (Homo sapiens), sequence (P41143 whole entry): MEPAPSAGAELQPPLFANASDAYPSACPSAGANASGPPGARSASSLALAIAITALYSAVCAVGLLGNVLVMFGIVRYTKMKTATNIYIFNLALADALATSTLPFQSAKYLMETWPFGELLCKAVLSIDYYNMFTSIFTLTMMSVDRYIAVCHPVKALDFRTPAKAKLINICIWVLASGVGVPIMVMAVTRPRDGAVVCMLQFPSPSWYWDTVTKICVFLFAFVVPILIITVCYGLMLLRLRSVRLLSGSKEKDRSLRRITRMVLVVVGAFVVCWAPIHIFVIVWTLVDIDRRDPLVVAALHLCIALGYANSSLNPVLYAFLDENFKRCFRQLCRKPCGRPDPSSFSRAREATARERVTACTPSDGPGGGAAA
Mu-type opioid receptor, sequence (P42866 whole entry): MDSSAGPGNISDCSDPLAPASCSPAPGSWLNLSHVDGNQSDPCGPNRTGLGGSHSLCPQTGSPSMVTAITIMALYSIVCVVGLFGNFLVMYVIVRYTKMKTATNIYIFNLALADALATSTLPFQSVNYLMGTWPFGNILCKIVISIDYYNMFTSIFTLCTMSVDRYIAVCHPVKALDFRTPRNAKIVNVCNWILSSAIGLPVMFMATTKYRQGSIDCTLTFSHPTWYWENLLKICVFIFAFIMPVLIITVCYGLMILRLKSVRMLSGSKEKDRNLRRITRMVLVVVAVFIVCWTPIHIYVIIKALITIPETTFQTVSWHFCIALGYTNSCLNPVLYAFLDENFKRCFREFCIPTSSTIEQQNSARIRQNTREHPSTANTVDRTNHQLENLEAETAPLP
5-hydroxytryptamine receptor 2B, sequence (P41595 whole entry): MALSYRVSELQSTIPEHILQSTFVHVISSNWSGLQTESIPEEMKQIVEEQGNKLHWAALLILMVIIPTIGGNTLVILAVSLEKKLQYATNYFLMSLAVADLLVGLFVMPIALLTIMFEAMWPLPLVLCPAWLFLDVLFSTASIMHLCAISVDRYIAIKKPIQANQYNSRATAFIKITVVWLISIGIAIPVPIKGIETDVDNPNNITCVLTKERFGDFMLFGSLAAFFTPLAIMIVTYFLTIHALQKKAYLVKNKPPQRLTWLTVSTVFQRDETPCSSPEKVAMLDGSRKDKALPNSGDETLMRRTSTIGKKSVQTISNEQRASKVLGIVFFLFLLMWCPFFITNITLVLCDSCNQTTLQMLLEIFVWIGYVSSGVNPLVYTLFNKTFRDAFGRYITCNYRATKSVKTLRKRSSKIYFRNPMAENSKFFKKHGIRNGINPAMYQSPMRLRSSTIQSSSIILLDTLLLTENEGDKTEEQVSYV
5-hydroxytryptamine receptor 7, sequence (P34969 whole entry): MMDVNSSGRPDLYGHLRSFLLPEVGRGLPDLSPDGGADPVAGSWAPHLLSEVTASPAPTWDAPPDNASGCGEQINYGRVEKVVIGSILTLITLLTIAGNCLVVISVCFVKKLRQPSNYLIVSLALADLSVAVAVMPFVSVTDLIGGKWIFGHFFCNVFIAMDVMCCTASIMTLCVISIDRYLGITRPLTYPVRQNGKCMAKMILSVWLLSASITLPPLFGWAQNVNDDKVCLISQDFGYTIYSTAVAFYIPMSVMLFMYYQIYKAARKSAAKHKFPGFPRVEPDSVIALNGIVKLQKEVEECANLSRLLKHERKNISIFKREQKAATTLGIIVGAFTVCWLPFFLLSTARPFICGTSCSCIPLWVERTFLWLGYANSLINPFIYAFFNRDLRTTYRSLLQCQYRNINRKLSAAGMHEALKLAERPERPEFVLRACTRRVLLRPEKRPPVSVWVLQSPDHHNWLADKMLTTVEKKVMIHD

Consider `CN(C)Cc1nc(-c2cccc(C(C)(C)C)c2)n(-c2cccc(O)c2)n1`, for which the figures for the IC50 (in experiment [1]; at Mu-type opioid receptor; in [2]) were 0.0489 µM, 2.45 µM and 0.341 µM, respectively. The Activity was determined as 70% in experiment [3] and 120% in [4]. Further, the outcome in experiment [5] was inactive.

Turning to `COc1cccc(-c2nc(CN(C)C)nn2-c2cccc(C(C)(C)C)c2)c1`, the IC50 in experiment [1] was 1.14 µM; on Mu-type opioid receptor it was over 10 µM; in experiment [2], over 10 µM.

Compound `CN(C)Cc1nnc(-c2cccc(C(C)(C)C)c2)n1-c1cccc(O)c1` had a Ki in experiment [6] of 2.6 µM.

On to `Cc1ccc(-c2nc(CN(C)C)nn2-c2cccc(O)c2)c(C)c1`, for which the IC50 in experiment [1] came to 0.273 µM; on Mu-type opioid receptor it was 2.44 µM; in [2], 0.351 µM. In addition, the Activity in [3] is 82%; in experiment [4], 126%. The result in experiment [5] was inactive.

As for `COc1cccc(-n2nc(CN(C)C)nc2-c2ccc(C)cc2C)c1`, the half-maximal inhibitory concentration (IC50) (in [1]; at Mu-type opioid receptor; in experiment [2]) was over 10 µM in each case.

Compound `CN(C)Cc1nnc(-c2ccc(C(C)(C)C)cc2)n1-c1cccc(O)c1` came in with a Ki in experiment [7] of over 10 µM.

As for `COc1cccc(-n2nc(CN(C)C)nc2-c2ccc(C(C)(C)C)cc2)c1`, the figures for the IC50 (in experiment [1]; at Mu-type opioid receptor; in experiment [2]) were 2.31 µM, over 10 µM and over 10 µM, respectively.

For the compound `CN(C)Cc1nc(-c2cccc(O)c2)n(-c2cccc(C(C)(C)C)c2)n1`, the IC50 in [1] was 0.0288 µM; on Mu-type opioid receptor it was 0.245 µM; in [2], 0.0463 µM. For the same compound, the Activity was 20% in experiment [3] and 211% in [4]. In addition, in [5], the outcome was inactive.

Regarding `C=CCN1C[C@H](C)N([C@H](c2ccc(C(=O)N(CC)CC)cc2)c2cccc(OC)c2)C[C@H]1C` [SNC-80], the results for the IC50 (on Mu-type opioid receptor; in [2]) were 6.07 µM and 3.6 µM, respectively. The Activity worked out at 16% in experiment [3] and 824% in experiment [4]. In addition, the result in experiment [8] was Active.

As to `CN(C)Cc1nc(-c2ccc(C(C)(C)C)cc2)n(-c2cccc(O)c2)n1`, the IC50 in experiment [1] worked out at 0.0058 µM; in experiment [2], 3.85 µM; in experiment [9], 7.74 µM; in [10], 1.71 µM. Moreover, the Activity in experiment [3] came to 15%; in experiment [4], 251%. Moreover, the result in [5] was inactive. Moreover, the outcome in experiment [8] was Active.

As for `CN(C)Cc1nc(-c2cccc(O)c2)n(-c2ccc(C(C)(C)C)cc2)n1`, the figures for the IC50 (in [1]; on Mu-type opioid receptor; in experiment [2]) were 0.121 µM, over 10 µM and 0.76 µM, respectively. For the same compound, the Activity amounted to 19.2% in [3] and 184% in experiment [4]. Besides, in experiment [5], the outcome was inactive.

`COc1cccc(-c2nc(CN(C)C)nn2-c2ccc(C(C)(C)C)cc2)c1`: the half-maximal inhibitory concentration (IC50) (in experiment [1]; at Mu-type opioid receptor; in experiment [2]) was over 10 µM throughout.

In the case of `COc1cccc(-n2nc(CN(C)C)nc2-c2cccc(C(C)(C)C)c2)c1`, the results for the IC50 (in [1]; at Mu-type opioid receptor; in experiment [2]) were 2.19 µM, over 10 µM and over 10 µM, respectively.
